Like-named read-outs stand apart in the source and are kept apart here.
Columns and labels:
human melanoma LOX = assay: survival of nude mice implanted with human melanoma LOX; format: in vivo, male athymic Swiss nu/nu mouse (human tumor); conditions: Mus musculus, ip, 24 h, read-out: T/C
Method: LOX, a human melanoma cell line, grown subcutaneously in nude mice was excised, trypsinized to yield a single cell suspension using a metal grid with a […] mesh. […] Five million viable trypan blue negative cells made up in 0.1 ml of Dulbecco modified Eagle medium (DMFE) were injected into the peritoneal cavity of a male athymic Swiss nu/nu mouse. The control group and each treatment group consisted of 5 to 10 mice. Treatment was commenced the following day by intraperitoneal injection.
Ten control mice received 0.25 ml of 2% dextrose on these days the treated groups were injected with the compounds of this invention. […] T/C is the ratio, expressed as a percentage of the mean survival age of the treated group to the mean survival age of the untreated control group.

CV-1 cells = assay: selective killing assay, colony number reduced to 50% of control, normal monkey kidney epithelial cell line CV-1; format: cell-based; conditions: 24 hours treatment; for IC50: Primates
Excerpt: The control received culture media only.

CX-1 cells = assay: selective killing assay, colony number reduced to 50% of control, human colon carcinoma cell line CX-1; format: cell-based; conditions: for IC50: Homo sapiens, CX-1, Table III; for IC50 / CX-1 (IC50): human colon carcinoma, 24 hours treatment, colony count after 7 to 10 days; for Selectivity (ratio of IC50 for CV-1 and IC50 for CX-1): CV-1/CX-1; for CX-1 (IC50): Table III;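 for all read-outs here: colonies stained with crystal violet and counted, control cells given medium alone, exposure at 37 °C, normal monkey kidney epithelial CV-1 cells as the non-cancer comparator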
Method: (§1) Human colon carcinoma cell line CX-1 or normal monkey kidney epithelial cell line CV-1 was chosen as representatives of cancer cells and normal cells, respectively. […] CX-1 cells (2,000 cells/well) and CV-1 cells (1,000 cells/well) were plated in 24-well plastic culture plates. […] The control received culture media only. Cells were treated with compounds of General Formulas (I) to (V) at 37° C. for 24 hours. After rinsing with fresh culture medium three times, the cells were further incubated at 37° C. for 7 to 10 days. Cell colonies were fixed and stained with 2% crystal violet in 70% ethanol for 10 minutes and rinsed in water. […] The selectivity is defined as the ratio of IC50 for CV-1 and IC50 for CX-1.

LOX cells = assay: colony assay of Example 1 with human melanoma LOX cell line; format: cell-based; conditions: for Selectivity: CV-1/LOX; for IC50: Homo sapiens, LOX, 24 h;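 for all read-outs here: colony formation assay with 24 h exposure at 37 °C, then 7 to 10 days of regrowth, crystal violet staining of colonies, control wells given medium alone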
Method: as §1

CRL 1420 cells = assay: colony assay of Example 1 with human pancreatic carcinoma CRL 1420 cell line; format: cell-based; conditions: for Selectivity: CV-1/CRL-1420; for IC50: Homo sapiens, 24 h;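 for all read-outs here: colony formation assay, cells exposed for 24 h then regrown 7 to 10 days without compound, colonies stained with crystal violet, control given medium alone, normal reference CV-1 monkey kidney epithelial cells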
EJ cells = assay: colony assay of Example 1 with human bladder carcinoma EJ cell line; format: cell-based; conditions: for Selectivity: CV-1/EJ; for IC50: Homo sapiens, EJ, 24 h, Table IV, human bladder carcinoma, 24 hours treatment;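 for all read-outs here: colony formation assay with 24 h compound exposure at 37 °C, then 7–10 days drug-free regrowth, colonies stained with crystal violet, controls given medium alone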
Method: as §1

[1] = CV-1, Table III, normal monkey kidney epithelial cells, colony count after 7 to 10 days
[2] = Table V, human melanoma, 24 hours treatment
[3] = Table VII, human pancreatic carcinoma, 24 hours treatment
[4] = Table III, normal monkey kidney epithelial cells, colony count after 7 to 10 days

SMILES: CCn1c(=Cc2sc3ccc4ccccc4c3[n+]2CC)sc(=C2Sc3ccccc3N2C)c1=O [Compound 30]
- response vs control in vivo at 2.5 mg/kg (human melanoma LOX; 2.5 mg/kg i.p. on day 1, 4, 6, 8): 171%
- IC50 (CV-1 cells; [1]): 2 µg/mL
- IC50 (CX-1 cells): 0.01 µg/mL

SMILES: CCn1c(=Cc2sc3ccc4ccccc4c3[n+]2CC)sc(=C2Oc3ccc(Cl)cc3N2C)c1=O [Compound 209]
- Selectivity (LOX cells): 100
- IC50 (LOX cells; [2]): 0.2 µg/mL
- IC50 (CV-1 cells; CV-1, 24 h, Table V): 20 µg/mL
- IC50 (CV-1 cells; CV-1, 24 h, Table VII): 20 µg/mL
- Selectivity (CRL 1420 cells): 200
- IC50 (CRL 1420 cells; [3]): 0.1 µg/mL

SMILES: C=CCn1c(=Cc2oc3ccccc3[n+]2CC)sc(=C2Sc3ccccc3N2C)c1=O [Compound 3]
- response vs control in vivo at 5 mg/kg (human melanoma LOX; 5 mg/kg i.p. on day 1, 4, 8, 11, 14, 16): 218%
- IC50 (CV-1 cells; [1]): 6 µg/mL
- Selectivity (ratio of IC50 for CV-1 and IC50 for CX-1) (CX-1 cells): 200
- IC50 (CX-1 cells): 0.03 µg/mL

SMILES: CC[n+]1c(C=c2sc(=C3Sc4ccc5ccccc5c4N3C)c(=O)n2CC(=O)OC)sc2c3ccccc3ccc21 [Compound 311]
- Selectivity (EJ cells): 400
- IC50 (EJ cells): 0.05 µg/mL
- IC50 (CV-1 cells; CV-1, 24 h, Table IV): 20 µg/mL
- IC50 (CV-1 cells; [1]): 20 µg/mL
- Selectivity (ratio of IC50 for CV-1 and IC50 for CX-1) (CX-1 cells): 667
- IC50 (CX-1 cells): 0.03 µg/mL

SMILES: CCn1c(=Cc2ccc3ccccc3[n+]2CC)sc(=C2Sc3ccccc3N2C)c1=O [Compound 341]
- Selectivity (LOX cells): 200
- LOX(IC50) (LOX cells; [2]): 0.03 µg/mL
- CV-1 (IC50) (CV-1 cells; Table V): 6 µg/mL
- CV-1 (IC50) (CV-1 cells; Table VII): 6 µg/mL
- Selectivity (CRL 1420 cells): 200
- CRL-1420(IC50) (CRL 1420 cells; [3]): 0.03 µg/mL

SMILES: CCn1c(=Cc2cccc[n+]2CC)sc(=C2Sc3ccccc3N2C)c1=O [Compound 342]
- response vs control in vivo at 5 mg/kg (human melanoma LOX; 5 mg/kg i.p. on day 1, 5, 8, 11, 14): > 350%

SMILES: CCn1c(=CC2=[N+](CC)CCS2)sc(=C2SC3=C(CCCC3)N2C)c1=O [Compound 211]
- response vs control in vivo at 5 mg/kg (human melanoma LOX; 5 mg/kg i.p. on day 1, 4, 8, 10): 194%

SMILES: CCn1c(=Cc2oc3cc4ccccc4cc3[n+]2CC)sc(=C2Sc3c(ccc4ccccc34)N2C)c1=O [Compound 237]
- IC50 (CV-1 cells; CV-1, 24 h, Table VII): 8 µg/mL
- Selectivity (CRL 1420 cells): 267
- IC50 (CRL 1420 cells; [3]): 0.03 µg/mL

SMILES: CCn1c(=Cc2oc3c4ccccc4ccc3[n+]2CC)sc(=C2Oc3ccc4ccccc4c3N2C)c1=O [Compound 316]
- response vs control in vivo at 5 mg/kg (human melanoma LOX; 5 mg/kg i.p. on day 1, 4, 8, 10, 12): > 340%
- CV-1 (IC50) (CV-1 cells; [4]): 1 µg/mL
- Selectivity (ratio of IC50 for CV-1 and IC50 for CX-1) (CX-1 cells): 100
- CX-1 (IC50) (CX-1 cells): 0.01 µg/mL

SMILES: CCn1c(=Cc2sc3c([n+]2CC)-c2ccccc2CC3)sc(=C2Oc3ccc(Cl)cc3N2C)c1=O [Compound 213]
- Selectivity (LOX cells): 200
- IC50 (LOX cells; [2]): 0.03 µg/mL
- Selectivity (EJ cells): 200
- IC50 (EJ cells): 0.03 µg/mL
- IC50 (CV-1 cells; CV-1, 24 h, Table IV): 6 µg/mL
- IC50 (CV-1 cells; CV-1, 24 h, Table V): 6 µg/mL
- IC50 (CV-1 cells; CV-1, 24 h, Table VII): 6 µg/mL
- Selectivity (CRL 1420 cells): 200
- IC50 (CRL 1420 cells; [3]): 0.03 µg/mL

SMILES: C=CCn1c(=Cc2oc3ccc4ccccc4c3[n+]2C)sc(=C2Oc3c(ccc4ccccc34)N2C)c1=O [Compound 319]
- Selectivity (EJ cells): 300
- IC50 (EJ cells): 0.02 µg/mL
- IC50 (CV-1 cells; CV-1, 24 h, Table IV): 6 µg/mL

SMILES: CCn1c(=Cc2oc3ccccc3[n+]2CC)sc(=C2Sc3ccccc3N2C)c1=O [Compound 245]
- response vs control in vivo at 15 mg/kg (human melanoma LOX; 15 mg/kg i.p. on day 1, 5, 9, 13, 19): 200%
- CV-1 (IC50) (CV-1 cells; [4]): 0.02 µg/mL
- Selectivity (ratio of IC50 for CV-1 and IC50 for CX-1) (CX-1 cells): 350
- CX-1 (IC50) (CX-1 cells): 7 µg/mL

SMILES: CCn1c(=Cc2sc3ccc(Cl)cc3[n+]2CC)sc(=C2Sc3ccc4ccccc4c3N2C)c1=O [Compound 94]
- response vs control in vivo at 10 mg/kg (human melanoma LOX; 10 mg/kg i.p. on day 1, 3, 6, 8, 10, 13, 15): 161%
- IC50 (CV-1 cells; [1]): 20 µg/mL
- Selectivity (ratio of IC50 for CV-1 and IC50 for CX-1) (CX-1 cells): 400
- IC50 (CX-1 cells): 0.05 µg/mL

SMILES: CCn1c(=Cc2sc3ccccc3[n+]2CC)sc(=C2Sc3ccc(C)cc3N2C)c1=O [Compound 50]
- response vs control in vivo at 5 mg/kg (human melanoma LOX; 5 mg/kg i.p. on day 1, 2, 3, 6, 9, 10, 13): 163%
- IC50 (CV-1 cells; [1]): 8 µg/mL
- Selectivity (ratio of IC50 for CV-1 and IC50 for CX-1) (CX-1 cells): 200
- IC50 (CX-1 cells): 0.04 µg/mL
